# Data from article PMC9143738, “New Chemotypes for the Inhibition of (p)ppGpp Synthesis in the Quest for New Antimicrobial Compounds” (Molecules, 2022).
# Key:
# Format in all cases: binding, S. equisimilis
# RelSeq 1–385 [1] = biological target: T1, RelSeq 1–385 (Streptococcus dysgalactiae subsp. equisimilis, UniProt Q54089); experiment: Thermal shift assay on RelSeq 1–385
# T1 construct: His-tag (C); host or cells: BL21(DE3) Escherichia coli
# Excerpt: Thermal shift is an experimental technique in which protein thermal denaturation is monitored following the increase in fluorescence reported by a protein-bound dye. In particular, an environment-sensitive hydrophobic dye (e.g., SYPRO Orange) binds to hydrophobic regions that become progressively exposed during thermal denaturation, resulting in an increase in its fluorescence emission. Since the binding of small molecules (e.g., fragments) to the protein can cause conformational changes that affect its melting temperature, this technique allows the screening of several compounds in a range of concentrations without consuming sizeable amounts of protein.
# We therefore evaluated the affinity of the 18 fragments selected from our in silico screening for the bifunctional protein RelSeq by titration of the protein in a thermal shift assay (Table 1).
# (§1) Thermal shift assays on selected fragments vs. RelSeq constructs. The binding of the selected fragments to RelSeq constructs was assessed by titration of the protein in thermal shift assays, performed using a Step One Real-Time PCR system (Thermo Fisher Scientific, Waltham, MA, USA). Assays were performed in 20 mM Tris-HCl, pH 8, containing 150 mM NaCl. The final protein concentration was kept at 0.5 mg/mL for all RelSeq constructs, and the fluorescent Protein Thermal Shift Dye (Thermo Fisher Scientific, Waltham, MA, USA) was used to monitor protein unfolding within the excitation/emission ranges 470–505/540–700 nm. […] Assays were performed in triplicate at a final volume of 15 µL in MicroAmp™ Fast Optical 48-well reaction plates (Thermo Fisher Scientific, Waltham, MA, USA) sealed with adhesive films. Plates were heated from 25 to 90 °C with a heating rate of 0.5 °C/min. The Kd of protein–ligand complexes engaged by RelSeq constructs with the tested fragments was calculated from the plot of protein melting temperature variations as a function of fragment concentrations with the equation for Ligand Binding (1 site) provided with the software GraFit 5.0 (Erithacus Software, Staines, UK).
# [2] = biological target: T2, RelSeq SYNTH (residues 79–385) (Streptococcus dysgalactiae subsp. equisimilis, UniProt Q54089); experiment: Thermal shift assay on RelSeq SYNTH; settings: titration 0.3–10 mM, pH 8
# T2 construct: His-tag (C); made in house; host or cells: BL21(DE3) Escherichia coli
# T2 sequence (Q54089 79-385): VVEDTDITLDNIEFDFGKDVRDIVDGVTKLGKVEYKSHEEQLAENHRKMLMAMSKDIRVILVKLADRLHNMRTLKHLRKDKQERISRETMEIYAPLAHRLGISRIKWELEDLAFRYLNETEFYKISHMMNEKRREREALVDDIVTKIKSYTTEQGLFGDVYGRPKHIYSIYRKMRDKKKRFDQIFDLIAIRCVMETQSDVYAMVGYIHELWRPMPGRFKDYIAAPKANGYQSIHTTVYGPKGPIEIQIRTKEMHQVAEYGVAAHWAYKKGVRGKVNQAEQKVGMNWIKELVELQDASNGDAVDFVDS
# Description: as §1, with “USA).” for “USA). Assays were performed in 20 mM Tris-HCl, pH 8, containing 150 mM NaCl. The final protein concentration was kept at 0.5 mg/mL for all RelSeq constructs, and the fluorescent Protein Thermal Shift Dye (Thermo Fisher Scientific, Waltham, MA, USA) was used to monitor protein unfolding within the excitation/emission ranges 470–505/540–700 nm.”
# [3] = biological target: T3, RelSeq HYD (residues 1–224) (Streptococcus dysgalactiae subsp. equisimilis, UniProt Q54089); experiment: Thermal shift assay on RelSeq HYD; settings: titration 0.3–10 mM, pH 8
# T3 construct: His-tag (C); made in house; host or cells: BL21(DE3) Escherichia coli
# T3 sequence (Q54089 1-224): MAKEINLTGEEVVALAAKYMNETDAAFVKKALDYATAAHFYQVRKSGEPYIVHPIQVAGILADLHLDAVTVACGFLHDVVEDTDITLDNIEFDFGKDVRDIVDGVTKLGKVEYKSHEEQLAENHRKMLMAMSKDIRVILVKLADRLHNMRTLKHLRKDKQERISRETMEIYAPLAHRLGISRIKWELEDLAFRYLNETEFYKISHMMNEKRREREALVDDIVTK
# Description: as §1, with “USA).” for “USA). Assays were performed in 20 mM Tris-HCl, pH 8, containing 150 mM NaCl. The final protein concentration was kept at 0.5 mg/mL for all RelSeq constructs, and the fluorescent Protein Thermal Shift Dye (Thermo Fisher Scientific, Waltham, MA, USA) was used to monitor protein unfolding within the excitation/emission ranges 470–505/540–700 nm.”
# RelSeq 1–385 [4] = biological target: T1, RelSeq 1–385; experiment: STD-NMR with RelSeq (1–385); settings: fragment:protein ratio 1000:1; fragment concentration 3 mM
# Description: (§2) The relatively weak affinity of the fragments measured by TSA directed us towards NMR methods to assess the specificity of the fragments-protein interactions. […] In particular, STD (Saturation Transfer Difference) exploits NOE effects between the protein and the ligand to map target–ligand interactions and to characterize biologically relevant complexes.
# (§3) STD-NMR experiments on selected fragments vs. RelSeq constructs. Experiments were performed on a 600 MHz Bruker Avance spectrometer. All experiments were acquired at 298 and 283 K on the free ligands in deuterated phosphate buffer pH 7.4. A DMSO-d6 percentage of about 5% was added to dissolve the fragments. In 1D spectra, water suppression was achieved by excitation sculpting sequence. STD NMR experiments were performed using WATERGATE 3-9-19 pulse sequence for water suppression. On-resonance irradiation of the protein was performed at a chemical shift of −0.05 ppm and 10 ppm; off-resonance irradiation was applied at 200 ppm, where no protein signals were visible. Selective pre-saturation of the protein was achieved by a train of Gauss-shaped pulses of 49 ms in length each. STD spectra were acquired with a saturation time of 2.94 s for all compounds. Blank experiments were conducted in the absence of protein in order to avoid artifacts.
# RelSeq SYNTH (79–385) = biological target: T4, RelSeq SYNTH (79–385) (Streptococcus dysgalactiae subsp. equisimilis, UniProt Q54089); experiment: STD-NMR with RelSeq SYNTH; settings: fragment:protein ratio 1000:1; fragment concentration 3 mM
# T4 construct: His-tag (C); made in house; host or cells: BL21(DE3) Escherichia coli
# T4 sequence (Q54089 79-385): as the sequence (Q54089 79-385) above
# Description: as §2, §3
# RelSeq HYD (1–224) = biological target: T5, RelSeq HYD (1–224) (Streptococcus dysgalactiae subsp. equisimilis, UniProt Q54089); experiment: STD-NMR with RelSeq HYD; settings: fragment:protein ratio 1000:1; fragment concentration 3 mM
# T5 construct: His-tag (C); made in house; host or cells: BL21(DE3) Escherichia coli
# T5 sequence (Q54089 1-224): as the sequence (Q54089 1-224) above
# Description: as §2, §3
# RelSeq 1–385 [5] = biological target: T1, RelSeq 1–385; experiment: Tryptophan assay; settings: read-out: Kd RelSeq 1–385 measured by tryptophan assay (converted)
# Excerpt: With the aim of studying protein–ligand interactions between RelSeq constructs and selected fragments, we evaluated the use of different techniques, such as tryptophan assay, microscale thermophoresis (MST), isothermal calorimetry (ITC) or thermal shift assay (TSA). The tryptophan assay is based on ligand-induced conformational changes in the local environment surrounding tryptophan residues in the target protein. Irradiation at 280 nm is followed by the detection of tryptophan fluorescence emission at different wavelengths. We used this technique to measure the Kd values of the natural substrates GDP and ATP (see below), but it is not applicable in the case of fragments due to their high absorbance at 280 nm. On the other hand, the currently available protein-labeling reagents for MST were not compatible with our protein constructs. We chose TSA over ITC due to its higher potential throughput and lower amount of protein required.
# [6] = thermal shift assay, titration 0.3–10 mM, pH 8
# T1 sequence (Q54089 1-385): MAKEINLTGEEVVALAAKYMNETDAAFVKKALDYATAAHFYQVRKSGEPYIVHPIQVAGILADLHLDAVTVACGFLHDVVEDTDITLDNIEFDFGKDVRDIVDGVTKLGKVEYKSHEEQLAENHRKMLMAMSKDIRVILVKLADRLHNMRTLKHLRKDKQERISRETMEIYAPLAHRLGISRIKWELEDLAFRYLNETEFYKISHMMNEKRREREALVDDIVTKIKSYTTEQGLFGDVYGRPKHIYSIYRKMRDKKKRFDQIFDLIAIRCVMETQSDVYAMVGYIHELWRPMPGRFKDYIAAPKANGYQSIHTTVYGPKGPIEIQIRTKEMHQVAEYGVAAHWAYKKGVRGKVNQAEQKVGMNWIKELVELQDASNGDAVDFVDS
Compound,Kd (RelSeq 1–385 [1]),Kd [2],Kd RelSeq HYD [3],other results
Nc1cccc(C(=O)O)c1 [A4],6.6 ± 0.1 mM,9.8 ± 2.8 mM,No binding,–
O=C(O)c1cccc2[nH]cnc12 [B3],3.4 ± 0.3 mM,4.3 ± 0.4 mM,–,Kd [3]: 3.3 ± 0.9 mM
CC(C)c1cc(C(=O)O)nc2ncnn12 [TP1],3.4 ± 0.8 mM,8.3 ± 1.6 mM,No binding,–
OCc1ccc2[nH]cnc2c1 [B1],–,–,No binding,Kd RelSeq 1–385 (RelSeq 1–385 [1]; [6]): No binding; Kd RelSeq SYNTH [2]: No binding; STD-NMR interaction with RelSeq (1–385) (RelSeq 1–385 [4]): did not show any significant interaction
COc1ccc(C(=O)O)cc1N [A5],1.1 ± 0.2 mM,2.2 ± 0.4 mM,No binding,–
O=C(O)Cc1c[nH]c2ccc(F)cc12 [I4],3.2 ± 0.7 mM,> 15 mM,No binding,–
O=C(O)c1ccc2cc[nH]c2c1 [I1],6.5 ± 1.1 mM,9.6 ± 1.5 mM,No binding,–
Nc1ccccc1C(=O)O [A1],1.2 ± 0.3 mM,10.8 ± 2.2 mM,No binding,STD-NMR interaction with RelSeq (1–385) (RelSeq 1–385 [4]): good interaction for the aromatic protons; STD-NMR interaction with RelSeq SYNTH (79–385) (RelSeq SYNTH (79–385)): Comparable overall STD intensities; STD-NMR interaction with RelSeq HYD (1–224) (RelSeq HYD (1–224)): did not produce any magnetization transfer
Nc1ccc(C(=O)O)c(Cl)c1 [A6],4.3 ± 1.1 mM,6.5 ± 1.2 mM,No binding,–
O=C(O)c1cccc2[nH]ccc12 [I3],4 ± 0.5 mM,9.9 ± 4.5 mM,No binding,–
O=C(O)c1cc2nc[nH]c2cc1C(=O)O [B4],–,–,No binding,Kd RelSeq 1–385 (RelSeq 1–385 [1]; [6]): No binding; Kd RelSeq SYNTH [2]: No binding
Nc1ccc(F)cc1C(=O)O [A3],1.5 ± 0.1 mM,5.5 ± 0.9 mM,No binding,–
O=C(O)c1ccc2[nH]ccc2c1 [I2],2.5 ± 0.6 mM,5.5 ± 0.9 mM,No binding,–
Nc1c(Cl)cc(Cl)cc1C(=O)O [A2],–,–,No binding,Kd RelSeq 1–385 (RelSeq 1–385 [1]; [6]): No binding; Kd RelSeq SYNTH [2]: No binding; STD-NMR interaction with RelSeq (1–385) (RelSeq 1–385 [4]): did not show any significant interaction
O=C(O)c1ccc2ocnc2c1 [BO1],2.2 ± 0.3 mM,2.7 ± 0.6 mM,No binding,–
COc1cc(C(=O)O)ccc1N [A7],4 ± 0.9 mM,4.3 ± 0.5 mM,No binding,–
"Nc1ncnc2c1ncn2[C@@H]1O[C@H](COP(=O)(O)OP(=O)(O)OP(=O)(O)O)[C@@H](O)[C@H]1O [ATP, reference compound]",–,–,–,"Kd (RelSeq 1–385 [1]; thermal shift assay, titration 0.3–10 mM, pH 8, read-out: Kd RelSeq 1–385): 0.49 ± 0.09 mM; Kd (RelSeq 1–385 [5]): 0.39 mM"
O=C(O)c1ccc2[nH]cnc2c1 [B2],–,–,–,Kd RelSeq 1–385 (RelSeq 1–385 [1]; [6]): Biphasic; Kd RelSeq SYNTH [2]: No binding; Kd [3]: 1.9 ± 0.7 mM
O=C(O)c1ccc2nn[nH]c2c1 [BT1],–,–,No binding,Kd RelSeq 1–385 (RelSeq 1–385 [1]; [6]): No binding; Kd RelSeq SYNTH [2]: No binding
